Measured values as given in US20240384350A1, “METHODS OF TREATING CANCER WITH KINASE INHIBITORS” (BOARD OF REGENTS, THE UNIVERSITY OF TEXAS SYSTEM, priority 2021, published 2024).

Legend:
Experiment in all cases: Ba/F3 drug screening, Cell Titer Glo, IC50 Mut/WT
Format in all cases: cell-based
EGFR L861Q = biological target: T1, EGFR L861Q (Homo sapiens, UniProt P00533, L861Q); details: Classical-Like, 72 hours
T1 construct: expressed in transfected cells; host or cells: Ba/F3 cells, retroviral pBabe-Puro vector
Experimental: (§1) Data represent the ratio of the IC50 value for a given TKI for cells with a classical-like EGFR mutation to the IC50 value for cells with wildtype EGFR.
(§2) Ba/F3 cell generation, drug screening, and IC50 approximations. Ba/F3 cells were obtained as a gift from Dr. Gordon Mills (MD Anderson Cancer Center), and maintained in RPMI (Sigma) containing 10% FBS, 1% penicillin/streptomycin, and 10 ng/ml recombinant mIL-3 (R&D Biosystems). To establish stable Ba/F3 cell lines, Ba/F3 cells were transduced with retroviruses containing mutant EGFR plasmids for 12-24 hours.
(§3) After 48-72 hours of transduction, 2 μg/ml puromycin (Invitrogen) was added to Ba/F3 cell lines in complete RPMI. To select for EGFR positive cell lines, cells were stained with PE-EGFR (Biolegend) and sorted by FACS. After sorting, EGFR positive cells were maintained in RPMI containing 10% FBS, 1% penicillin/streptomycin, and 1 ng/ml EGF to support cell viability. […] Shortly, cells were plated in 384-well plates (Greiner Bio-One) at 2000-3000 cells per well in technical triplicate. Seven different concentrations of TKIs or DMSO vehicle were added to reach a final volume of 40 μL per well. After 72 hours, 11 μL of Cell Titer Glo (Promega) was added to each well. Plates were incubated for a minimum of 10 minutes, and bioluminescence was determined using a FLUOstar OPTIMA plate reader (BMG LABTECH). Raw bioluminescence values were normalized to DMSO control treated cells, and values were plotted in GraphPad Prism. […] Drug screens were performed in technical triplicate on each plate and either duplicate or triplicate biological replicates.

EGFR L858R S784F = biological target: T2, EGFR L858R S784F (Homo sapiens, UniProt P00533, L858R/S784F); details: Classical-Like, 72 hours
T2 construct: expressed in transfected cells; host or cells: Ba/F3 cells, retroviral pBabe-Puro vector (vector made by GeneScript from EGFR L858R)
Experimental: as §1, §2, §3

EGFR L833F = biological target: T3, EGFR L833F (Homo sapiens, UniProt P00533, L833F); details: Classical-Like, 72 hours
T3 construct: expressed in transfected cells; host or cells: Ba/F3 cells, retroviral pBabe-Puro vector
Experimental: as §1, §2, §3

EGFR L718Q = biological target: T4, EGFR L718Q (Homo sapiens, UniProt P00533, L718Q); details: for ratio of the IC50 value for cells with a PACC EGFR mutation to the IC50 value for cells with wildtype EGFR: Ba/F3 cells, EGFR L718Q (PACC), Mut/WT
T4 construct: expressed in transfected cells; host or cells: Ba/F3
Experimental: (§4) Data represent the ratio of the IC50 value for a given TKI for cells with a PACC EGFR mutation to the IC50 value for cells with wildtype EGFR.
as §2
(§5) After 48-72 hours of transduction, 2 μg/ml puromycin (Invitrogen) was added to Ba/F3 cell lines in complete RPMI. To select for EGFR positive cell lines, cells were stained with PE-EGFR (Biolegend) and sorted by FACS. After sorting, EGFR positive cells were maintained in RPMI containing 10% FBS, 1% penicillin/streptomycin, and 1 ng/ml EGF to support cell viability. Drug screening was performed as previously described^41,42. Shortly, cells were plated in 384-well plates (Greiner Bio-One) at 2000-3000 cells per well in technical triplicate. Seven different concentrations of TKIs or DMSO vehicle were added to reach a final volume of 40 μL per well. After 72 hours, 11 μL of Cell Titer Glo (Promega) was added to each well. Plates were incubated for a minimum of 10 minutes, and bioluminescence was determined using a FLUOstar OPTIMA plate reader (BMG LABTECH). Raw bioluminescence values were normalized to DMSO control treated cells, and values were plotted in GraphPad Prism. […] Drug screens were performed in technical triplicate on each plate and either duplicate or triplicate biological replicates.

EGFR L858R L718Q = biological target: T5, EGFR L858R L718Q (Homo sapiens, UniProt P00533, L718Q/L858R); details: for ratio of the IC50 value for cells with a PACC EGFR mutation to the IC50 value for cells with wildtype EGFR: Ba/F3 cells, EGFR L858R L718Q (PACC), Mut/WT
T5 construct: host or cells: Ba/F3
Experimental: as §4, §2, §5

EGFR L858R/T790M = biological target: T6, EGFR L858R/T790M (Homo sapiens, UniProt P00533, L858R/T790M); details: T790M-like-3S, 72 hours
T6 construct: expressed in transfected cells; host or cells: Ba/F3
Experimental: (§6) Data represent the ratio of the IC50 value for a given TKI for cells with a T790M-like-3S EGFR mutation to the IC50 value for cells with wildtype EGFR.
as §2, §5

EGFR S768I V774M = biological target: T7, EGFR S768I V774M (Homo sapiens, UniProt P00533, S768I/V774M); details: for ratio of the IC50 value for cells with a PACC EGFR mutation to the IC50 value for cells with wildtype EGFR: Ba/F3 cells, EGFR S768I V774M (PACC), Mut/WT
T7 construct: host or cells: Ba/F3
Experimental: as §4, §2, §5

EGFR L858R/V834L = biological target: T8, EGFR L858R/V834L (Homo sapiens, UniProt P00533, L858R/V834L); details: Classical-Like, 72 hours
T8 construct: expressed in transfected cells; host or cells: Ba/F3 cells, retroviral pBabe-Puro vector
Experimental: as §1, §2, §3

EGFR A763insLQEA = biological target: T9, EGFR A763insLQEA (Homo sapiens, UniProt P00533, INS763LQEA); details: Classical-Like, 72 hours
T9 construct: expressed in transfected cells; host or cells: Ba/F3 cells, retroviral pBabe-Puro vector

EGFR Ex19del T790M L718V = biological target: T10, EGFR Ex19del T790M L718V (Homo sapiens, UniProt P00533, DEL746-750/L718V/T790M); details: T790M-like-3S, 72 hours
T10 construct: expressed in transfected cells; host or cells: Ba/F3
Experimental: as §6, §2, §5

EGFR K757R = biological target: T11, EGFR K757R (Homo sapiens, UniProt P00533, K757R); details: for ratio of the IC50 value for cells with a PACC EGFR mutation to the IC50 value for cells with wildtype EGFR: Ba/F3 cells, EGFR K757R (PACC), Mut/WT
T11 construct: expressed in transfected cells; host or cells: Ba/F3
Experimental: as §4, §2
(§7) After 48-72 hours of transduction, 2 μg/ml puromycin (Invitrogen) was added to Ba/F3 cell lines in complete RPMI. To select for EGFR positive cell lines, cells were stained with PE-EGFR (Biolegend) and sorted by FACS. After sorting, EGFR positive cells were maintained in RPMI containing 10% FBS, 1% penicillin/streptomycin, and 1 ng/ml EGF to support cell viability. Drug screening was performed as previously described^41,42. Shortly, cells were plated in 384-well plates (Greiner Bio-One) at 2000-3000 cells per well in technical triplicate. Seven different concentrations of TKIs or DMSO vehicle were added to reach a final volume of 40 μL per well. After 72 hours, 11 μL of Cell Titer Glo (Promega) was added to each well. Plates were incubated for a minimum of 10 minutes, and bioluminescence was determined using a FLUOstar OPTIMA plate reader (BMG LABTECH). Raw bioluminescence values were normalized to DMSO control treated cells, and values were plotted in GraphPad Prism. […] Drug screens were performed in technical triplicate on each plate and either duplicate or triplicate biological replicates. […] Statistical differences between groups were determined by ANOVA as described in the figure legends.

EGFR L747P = biological target: T12, EGFR L747P (Homo sapiens, UniProt P00533, L747P); details: for ratio of the IC50 value for cells with a PACC EGFR mutation to the IC50 value for cells with wildtype EGFR: Ba/F3 cells, EGFR L747P (PACC), Mut/WT
T12 construct: expressed in transfected cells; host or cells: Ba/F3

EGFR L718V = biological target: T13, EGFR L718V (Homo sapiens, UniProt P00533, L718V); details: for ratio of the IC50 value for cells with a PACC EGFR mutation to the IC50 value for cells with wildtype EGFR: Ba/F3 cells, EGFR L718V (PACC), Mut/WT
T13 construct: expressed in transfected cells; host or cells: Ba/F3
Experimental: as §4, §2, §5

EGFR L858R T790M L792H = biological target: T14, EGFR L858R T790M L792H (Homo sapiens, UniProt P00533, L792H/L858R/T790M); details: T790M-like-3S, 72 hours
T14 construct: expressed in transfected cells; host or cells: Ba/F3
Experimental: as §6, §2, §5

EGFR S768dupSVD V769M = biological target: T15, EGFR S768dupSVD V769M (Homo sapiens, UniProt P00533, INS768MDS/V769M); details: Ex20, 72 hours
T15 construct: expressed in transfected cells; host or cells: Ba/F3 cells, retroviral pBabe-Puro vector (vector made by GeneScript from EGFR S768dupSVD, c.2305G > A)

EGFR Ex19del/T790M/G724S = biological target: T16, EGFR Ex19del/T790M/G724S (Homo sapiens, UniProt P00533, DEL746-750/G724S/T790M); details: T790M-like-3S, 72 hours
T16 construct: expressed in transfected cells; host or cells: Ba/F3
Experimental: as §6, §2, §5

EGFR D761N = biological target: T17, EGFR D761N (Homo sapiens, UniProt P00533, D761N); details: Classical-Like, 72 hours
T17 construct: expressed in transfected cells; host or cells: Ba/F3 cells, retroviral pBabe-Puro vector
Experimental: as §1, §2, §3

EGFR S811F = biological target: T18, EGFR S811F (Homo sapiens, UniProt P00533, S811F); details: Classical-Like, 72 hours
T18 construct: expressed in transfected cells; host or cells: Ba/F3 cells, retroviral pBabe-Puro vector (vector made by GeneScript from EGFR WT)

EGFR E709K L858R = biological target: T19, EGFR E709K L858R (Homo sapiens, UniProt P00533, E709K/L858R); details: Classical-Like, 72 hours
T19 construct: expressed in transfected cells; host or cells: Ba/F3 cells, retroviral pBabe-Puro vector
Experimental: as §1, §2, §3

EGFR D770insNPG = biological target: T20, EGFR D770insNPG (Homo sapiens, UniProt P00533, INS770NPG); details: Ex20, 72 hours
T20 construct: expressed in transfected cells; host or cells: Ba/F3 cells, retroviral pBabe-Puro vector
Experimental: Data represent the ratio of the IC50 value for a given TKI for cells with an ex20ins EGFR mutation to the IC50 value for cells with wildtype EGFR.
as §2, §7

EGFR L858R/T790M/C797S = biological target: T21, EGFR L858R/T790M/C797S (Homo sapiens, UniProt P00533, C797S/L858R/T790M); details: T790M-like-3R, 72 hours
T21 construct: expressed in transfected cells; host or cells: Ba/F3
Experimental: Data represent the ratio of the IC50 value for a given TKI for cells with a T790M-like-3R EGFR mutation to the IC50 value for cells with wildtype EGFR.
as §2
After 48-72 hours of transduction, 2 μg/ml puromycin (Invitrogen) was added to Ba/F3 cell lines in complete RPMI. To select for EGFR positive cell lines, cells were stained with PE-EGFR (Biolegend) and sorted by FACS. After sorting, EGFR positive cells were maintained in RPMI containing 10% FBS, 1% penicillin/streptomycin, and 1 ng/ml EGF to support cell viability. […] Shortly, cells were plated in 384-well plates (Greiner Bio-One) at 2000-3000 cells per well in technical triplicate. Seven different concentrations of TKIs or DMSO vehicle were added to reach a final volume of 40 μL per well. After 72 hours, 11 μL of Cell Titer Glo (Promega) was added to each well. Plates were incubated for a minimum of 10 minutes, and bioluminescence was determined using a FLUOstar OPTIMA plate reader (BMG LABTECH). Raw bioluminescence values were normalized to DMSO control treated cells, and values were plotted in GraphPad Prism. […] Drug screens were performed in technical triplicate on each plate and either duplicate or triplicate biological replicates. […] Statistical differences between groups were determined by ANOVA as described in the figure legends.

EGFR L861R = biological target: T22, EGFR L861R (Homo sapiens, UniProt P00533, L861R); details: Classical-Like, 72 hours
T22 construct: expressed in transfected cells; host or cells: Ba/F3 cells, retroviral pBabe-Puro vector (vector made by GeneScript from EGFR WT)
Experimental: as §1, §2, §3

EGFR N771dupN = biological target: T23, EGFR N771dupN (Homo sapiens, UniProt P00533, DUP771-771); details: Ex20, 72 hours
T23 construct: expressed in transfected cells; host or cells: Ba/F3 cells, retroviral pBabe-Puro vector

EGFR A763insFQEA = biological target: T24, EGFR A763insFQEA (Homo sapiens, UniProt P00533, INS763FQEA); details: Classical-Like, 72 hours
T24 construct: expressed in transfected cells; host or cells: Ba/F3 cells, retroviral pBabe-Puro vector
Experimental: as §1, §2, §3

SMILES	ratio of IC50 for cells with mutant EGFR to IC50 for cells with wildtype EGFR (Mut/WT) (EGFR L861Q)	ratio of IC50 for cells with mutant EGFR to IC50 for cells with wildtype EGFR (Mut/WT) (EGFR L858R S784F)	ratio of IC50 for cells with mutant EGFR to IC50 for cells with wildtype EGFR (Mut/WT) (EGFR L833F)	ratio of the IC50 value for cells with a PACC EGFR mutation to the IC50 value for cells with wildtype EGFR (EGFR L718Q)	ratio of the IC50 value for cells with a PACC EGFR mutation to the IC50 value for cells with wildtype EGFR (EGFR L858R L718Q)	ratio of IC50 for cells with mutant EGFR to IC50 for cells with wildtype EGFR (Mut/WT) (EGFR L858R/T790M)	ratio of the IC50 value for cells with a PACC EGFR mutation to the IC50 value for cells with wildtype EGFR (EGFR S768I V774M)	ratio of IC50 for cells with mutant EGFR to IC50 for cells with wildtype EGFR (Mut/WT) (EGFR L858R/V834L)	ratio of IC50 for cells with mutant EGFR to IC50 for cells with wildtype EGFR (Mut/WT) (EGFR A763insLQEA)	ratio of IC50 for cells with mutant EGFR to IC50 for cells with wildtype EGFR (Mut/WT) (EGFR Ex19del T790M L718V)	ratio of IC50 for cells with mutant EGFR to IC50 for cells with wildtype EGFR (Mut/WT) (EGFR L858R T790M L792H)	ratio of IC50 for cells with mutant EGFR to IC50 for cells with wildtype EGFR (Mut/WT) (EGFR S768dupSVD V769M)	ratio of IC50 for cells with mutant EGFR to IC50 for cells with wildtype EGFR (Mut/WT) (EGFR Ex19del/T790M/G724S)	ratio of IC50 for cells with mutant EGFR to IC50 for cells with wildtype EGFR (Mut/WT) (EGFR D761N)	ratio of IC50 for cells with mutant EGFR to IC50 for cells with wildtype EGFR (Mut/WT) (EGFR S811F)	ratio of IC50 for cells with mutant EGFR to IC50 for cells with wildtype EGFR (Mut/WT) (EGFR E709K L858R)	ratio of IC50 for cells with mutant EGFR to IC50 for cells with wildtype EGFR (Mut/WT) (EGFR D770insNPG)	ratio of IC50 for cells with mutant EGFR to IC50 for cells with wildtype EGFR (Mut/WT) (EGFR L858R/T790M/C797S)	ratio of IC50 for cells with mutant EGFR to IC50 for cells with wildtype EGFR (Mut/WT) (EGFR L861R)	ratio of IC50 for cells with mutant EGFR to IC50 for cells with wildtype EGFR (Mut/WT) (EGFR A763insFQEA)	also measured
C=CC(=O)N1CC[C@@H](Oc2nc(Nc3ccc(N4CCC(N5CCN(C)CC5)CC4)cc3)c(C(N)=O)nc2CC)C1 [Naquotinib]	0.1616	0.1921	0.03054	5.448	5.547	0.01398	0.4917	0.05339	0.3419	0.02994	0.03529	1.96	0.02849	0.1966	0.0351	0.0818	1.296	32.29	0.09054	0.1912	ratio of the IC50 value for cells with a PACC EGFR mutation to the IC50 value for cells with wildtype EGFR (EGFR K757R): 1.658; ratio of the IC50 value for cells with a PACC EGFR mutation to the IC50 value for cells with wildtype EGFR (EGFR L747P): 3.507; ratio of the IC50 value for cells with a PACC EGFR mutation to the IC50 value for cells with wildtype EGFR (EGFR L718V): 0.5426; ratio of IC50 for cells with mutant EGFR to IC50 for cells with wildtype EGFR (Mut/WT) (EGFR N771dupN): 3.012
C=CC(=O)Nc1cc(Nc2nccc(-n3cc(CN(C)C)c(-c4ccccc4)n3)n2)c(OC)cc1N1CCOCC1 [Lazertinib]	0.05622	0.02456	0.08625	5.442	3.064	0.0336	0.7678	0.003768	0.1304	0.4667	0.0005009	2.831	0.02984	0.01957	0.01158	0.0006261	4.93	23.29	0.05091	0.03797	ratio of the IC50 value for cells with a PACC EGFR mutation to the IC50 value for cells with wildtype EGFR (EGFR K757R): 0.349; ratio of the IC50 value for cells with a PACC EGFR mutation to the IC50 value for cells with wildtype EGFR (EGFR L747P): 2.92; ratio of the IC50 value for cells with a PACC EGFR mutation to the IC50 value for cells with wildtype EGFR (EGFR L718V): 0.6184
CNC(=O)CN1CCC(Oc2cc3c(Nc4cccc(Cl)c4F)ncnc3cc2OC)CC1 [Sapatinib]	0.01265	0.06664	0.006619			38.86		0.001889	0.004226		54.78	1.596	26.15	0.001814	0.006549	0.02084	5.022	66.82	0.002811	0.3137	ratio of IC50 for cells with mutant EGFR to IC50 for cells with wildtype EGFR (Mut/WT) (EGFR L718Q; PACC, L718Q, Ba/F3, 72 hours): 2.03; ratio of IC50 for cells with mutant EGFR to IC50 for cells with wildtype EGFR (Mut/WT) (EGFR L858R L718Q; PACC, L858R L718Q, Ba/F3, 72 hours): 0.1961; ratio of IC50 for cells with mutant EGFR to IC50 for cells with wildtype EGFR (Mut/WT) (EGFR S768I V774M; PACC, S768I V774M, Ba/F3, 72 hours): 0.2648; ratio of IC50 for cells with mutant EGFR to IC50 for cells with wildtype EGFR (Mut/WT) (EGFR K757R; PACC, K757R, Ba/F3, 72 hours): 0.3144; ratio of IC50 for cells with mutant EGFR to IC50 for cells with wildtype EGFR (Mut/WT) (EGFR L747P; PACC, L747P, Ba/F3, 72 hours): 0.03076; ratio of IC50 for cells with mutant EGFR to IC50 for cells with wildtype EGFR (Mut/WT) (EGFR L718V; PACC, L718V, Ba/F3, 72 hours): 1.264; ratio of IC50 for cells with mutant EGFR to IC50 for cells with wildtype EGFR (Mut/WT) (EGFR N771dupN): 1.24
